This note sets out measurements from ChEMBL document CHEMBL1122236, “3'-Amino-2',3'-dideoxyribonucleosides of some pyrimidines: synthesis and biological activities” (1983).

For orientation: MIC means the smallest concentration in the dilution series that meets the test's criterion for growth inhibition. A higher MIC goes with weaker potency.

For one experiment, the system named is Klebsiella aerogenes. As to the kind of experiment: Minimum inhibitory concentration against Enterobacter aerogenes. The format is functional.
The subject of the next experiment is Proteus mirabilis. As to the kind of experiment: Minimum inhibitory concentration against Proteus mirabilis. The format is functional.
The test system of a further experiment is Salmonella typhimurium. The experiment in a line: Minimum inhibitory concentration against Salmonella Typhimurium. The format is functional, Salmonella enterica subsp. enterica serovar Typhimurium. Conditions: Salmonella enterica.
The test system of a further experiment is Citrobacter freundii. The experiment in a line: Minimum inhibitory concentration against Citrobacter freundii. It is filed as functional.
In the next experiment the test system is Shigella flexneri. As to the kind of experiment: Minimum inhibitory concentration against Shigella flexneri. It is filed as functional.
The test system of a further experiment is Vibrio cholerae. As to the kind of experiment: Minimum inhibitory concentration against Vibrio cholerae. The format is functional.
The next experiment has as its system Klebsiella pneumoniae. As to the kind of experiment: Minimum inhibitory concentration against Klebsiella pneumoniae. It is filed as functional.
The test system of the next experiment is Serratia marcescens. The experiment in a line: Minimum inhibitory concentration against Serratia marcescens. The format is functional.
The next experiment concerns Salmonella. The experiment in a line: Minimum inhibitory concentration against Salmonella typhi. It is filed as functional, salmonella typhosa.
The subject of another experiment is D-38. The experiment in a line: In vitro cytotoxicity against human D-38 cells. The format is functional. The following applies: read-out: ED50 (the source's name).
The test system of the next experiment is L cells. The experiment in a line: in vitro cytotoxicity against mouse L cells. Conditions: L929, read-out: ED50 (the source's name). The format is functional.
In a further experiment the test system is Staphylococcus aureus. The experiment in a line: In vitro minimum inhibitory concentration against Staphylococcus aureus. It is filed as functional.
Another experiment deals with unidentified adenovirus. The experiment in a line: In vitro antiviral activity against adeno virus using plaque reduction assay. It is filed as functional. The following applies: read-out: ED50 (the source's name). (In general: In a plaque reduction assay, fewer plaques than in the control indicate reduced infectivity or spread.)
The test system of a further experiment is Pseudomonas aeruginosa. The experiment in a line: Minimum inhibitory concentration against Pseudomonas aeruginosa. It is filed as functional.
The next experiment deals with Escherichia coli. The experiment in a line: Minimum inhibitory concentration against Escherichia coli. It is filed as functional.
For the next experiment, the system named is Proteus vulgaris. As to the kind of experiment: Minimum inhibitory concentration against Proteus vulgaris. It is filed as functional.
A further experiment relates to Pasteurella multocida. The experiment in a line: Minimum inhibitory concentration against Pasteurella multocida. The format is functional.
A further experiment has as its system Candida albicans. As to the kind of experiment: Minimum inhibitory concentration against Candida albicans. The format is functional.
Another experiment concerns P388. As to the kind of experiment: Activity against P-388/0 mouse tumor at 675 mg/kg administered three times on days 1, 5, 9 after implantation; Inactive. Details: dose 675 mg/kg. The format is functional, organism-based.
A further experiment concerns Streptococcus pyogenes. As to the kind of experiment: Minimum inhibitory concentration against Streptococcus pyogenes. It is filed as functional.
A further experiment relates to Enterococcus faecalis. As to the kind of experiment: Minimum inhibitory concentration against Streptococcus faecalis. The format is functional.
The subject of the next experiment is Priestia megaterium. As to the kind of experiment: Minimum inhibitory concentration against Bacillus megaterium. The format is functional.
Another experiment has as its system Streptococcus agalactiae. As to the kind of experiment: Minimum inhibitory concentration against Streptococcus agalactiae. It is filed as functional.
For experiment [1], the system named is Escherichia coli (organism). As to the kind of experiment: Minimum inhibitory concentration against Escherichia coli.

Values after ≈ are worked out from the molar mass of the structure shown. Active and inactive are the calls of the source. Bounds are passed on as bounds.

For `NC1CC(n2cc(Cl)c(=O)[nH]c2=O)OC1CO` (stereo not given), the MIC in the experiment on Klebsiella aerogenes, with Proteus mirabilis, in the experiment on Salmonella typhimurium, in the experiment on Citrobacter freundii, in the experiment with Shigella flexneri and in the experiment on Vibrio cholerae was above 200 µM throughout. Further, the MIC with Klebsiella pneumoniae, with Serratia marcescens, against Salmonella, in the experiment with Staphylococcus aureus, against Pseudomonas aeruginosa and in the experiment with Escherichia coli was above 200 µM in each case. The minimum inhibitory concentration (MIC) in the experiment with Proteus vulgaris and in the experiment with Pasteurella multocida was above 200 µM in each case. Also, the EC50 in the experiment on D-38 is above 100 µM; with L cells, 100 µM; in the experiment on unidentified adenovirus, 100 µM.

Consider `NC1CC(n2cc(I)c(=O)[nH]c2=O)OC1CO` (stereo not given), for which the MIC against Klebsiella aerogenes, against Proteus mirabilis, against Salmonella typhimurium, against Citrobacter freundii, in the experiment with Shigella flexneri and against Vibrio cholerae was above 200 µM in each case. Besides, the minimal inhibitory concentration (MIC) against Klebsiella pneumoniae is above 200 µM; against Serratia marcescens, above 200 µM; with Salmonella it was above 200 µM; with Staphylococcus aureus it was above 400 µM; against Pseudomonas aeruginosa, above 200 µM; against Escherichia coli, above 200 µM. The MIC in the experiment with Proteus vulgaris and against Pasteurella multocida was above 200 µM throughout. Also, the EC50 in the experiment on D-38, with L cells and in the experiment on unidentified adenovirus was above 100 µM in each case.

For the compound `N[C@H]1C[C@H](n2ccc(=O)[nH]c2=O)O[C@@H]1CO`, the MIC with Klebsiella aerogenes, against Proteus mirabilis, against Salmonella typhimurium, against Citrobacter freundii, in the experiment on Shigella flexneri and in the experiment with Vibrio cholerae was above 200 µM throughout. The minimum inhibitory concentration (MIC) is above 200 µM in the experiment on Klebsiella pneumoniae; above 200 µM in the experiment on Serratia marcescens; above 200 µM against Salmonella; above 400 µM with Staphylococcus aureus; above 200 µM in the experiment on Pseudomonas aeruginosa; above 200 µM in the experiment on Escherichia coli. Moreover, the minimal inhibitory concentration (MIC) against Proteus vulgaris and in the experiment on Pasteurella multocida was above 200 µM each time. The EC50 with D-38, in the experiment with L cells and in the experiment on unidentified adenovirus was above 100 µM throughout.

Regarding `NC1CC(n2cc(F)c(=O)[nH]c2=O)OC1CO` (stereo not given), the MIC with Klebsiella aerogenes, against Candida albicans, against Proteus mirabilis, with Salmonella typhimurium, in the experiment with Citrobacter freundii and in the experiment on Shigella flexneri was above 200 µM in each case. Further, the minimal inhibitory concentration (MIC) with Vibrio cholerae is above 200 µM; against Klebsiella pneumoniae, above 200 µM; with Serratia marcescens, above 200 µM; against Salmonella it was above 200 µM; against Streptococcus pyogenes it was above 200 µM; against Enterococcus faecalis, 20 µM (≈ 4.9 µg/mL). The minimal inhibitory concentration (MIC) in the experiment with Priestia megaterium is 40 µM (≈ 9.81 µg/mL); in the experiment with Staphylococcus aureus it was 4 µM (≈ 0.981 µg/mL); with Streptococcus agalactiae it was 20 µM (≈ 4.9 µg/mL); in the experiment on Pseudomonas aeruginosa, above 200 µM; in the experiment on Proteus vulgaris, above 200 µM; in experiment [1] it was above 200 µM. The minimal inhibitory concentration (MIC) in the experiment with Pasteurella multocida is above 200 µM. Also, in the experiment on P388, the result was inactive. The values for the EC50 with D-38, in the experiment on L cells and in the experiment with unidentified adenovirus were above 100 µM, 100 µM and 10 µM, respectively.

In the case of `Nc1ccn([C@H]2C[C@H](N)[C@@H](CO)O2)c(=O)n1`, the MIC in the experiment with Klebsiella aerogenes, against Proteus mirabilis, against Salmonella typhimurium, against Citrobacter freundii, with Shigella flexneri and in the experiment on Vibrio cholerae was above 200 µM throughout. For the same compound, the minimal inhibitory concentration (MIC) is above 200 µM in the experiment on Klebsiella pneumoniae; above 200 µM in the experiment on Serratia marcescens; above 200 µM with Salmonella; above 400 µM in the experiment with Staphylococcus aureus; above 200 µM in the experiment on Pseudomonas aeruginosa; above 200 µM in the experiment with Escherichia coli. The MIC with Proteus vulgaris and against Pasteurella multocida was above 200 µM each time. The EC50 was 3 µM in the experiment on D-38, 1 µM with L cells and above 100 µM in the experiment on unidentified adenovirus.

Turning to `Cc1cn([C@H]2C[C@H](N)[C@@H](CO)O2)c(=O)[nH]c1=O` [3-AMINO- 3-DEOXYTHYMIDINE], the MIC against Klebsiella aerogenes, with Proteus mirabilis, in the experiment on Salmonella typhimurium, with Citrobacter freundii, against Shigella flexneri and in the experiment on Vibrio cholerae was above 200 µM in each case. For the same compound, the MIC is above 200 µM against Klebsiella pneumoniae; above 200 µM against Serratia marcescens; above 200 µM with Salmonella; above 400 µM against Staphylococcus aureus; above 200 µM against Pseudomonas aeruginosa; above 200 µM against Escherichia coli. Further, the MIC in the experiment on Proteus vulgaris and in the experiment on Pasteurella multocida was above 200 µM throughout. Also, the EC50 is 100 µM with D-38, 3 µM in the experiment on L cells and above 100 µM in the experiment with unidentified adenovirus.

Regarding `NC1CC(n2cc(Br)c(=O)[nH]c2=O)OC1CO` (stereo not given), the MIC with Klebsiella aerogenes, with Proteus mirabilis, in the experiment on Salmonella typhimurium, in the experiment with Citrobacter freundii, in the experiment with Shigella flexneri and against Vibrio cholerae was above 200 µM in each case. In addition, the minimum inhibitory concentration (MIC) was above 200 µM in the experiment on Klebsiella pneumoniae; above 200 µM with Serratia marcescens; above 200 µM with Salmonella; above 400 µM in the experiment on Staphylococcus aureus; above 200 µM in the experiment on Pseudomonas aeruginosa; above 200 µM against Escherichia coli. Further, the MIC in the experiment with Proteus vulgaris and against Pasteurella multocida was above 200 µM each time. The EC50 with D-38 is above 100 µM; with L cells, above 100 µM; in the experiment on unidentified adenovirus, 100 µM.
